# Tested on: participants with SSc-RP
# Assay: Scleroderma Health Assessment Questionnaire (SHAQ): disability indices and visual analog scales
# Format: in vivo, human
# In short: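 Participants with SSc-RP completed the SHAQ at screening and each in-clinic visit. Standard and alternative disability indices (eight categories, 0–3; standard adjusts for aids/assistance) plus Raynaud's VAS on interference over the past 7 days. Reported as absolute change from baseline to end of each dosing period.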
# [1] = Modified ITT, Part A, dose Cilnidipine 10 mg, Tadalafil 5 mg, or 10 mg + 5 mg
# [2] = PP Population, Part A, sensitivity analysis, cilnidipine 10 mg and/or tadalafil 5 mg as labelled
# [3] = Tadalafil 5 mg (N = 4), Modified ITT, Part A
# [4] = Tadalafil 5 mg (N = 4), patients with diagnosis of SSc, sensitivity analysis, Modified ITT, Part A
# [5] = Tadalafil 5 mg, Day 12, PP Population Part A, SSc patients
# [6] = Tadalafil 5 mg, Day 12, PP Population, Part A
# [7] = Tadalafil 5 mg, PP Population Part A, SSc patients
structure (smiles),measurement,setting,value
"CN1CC(=O)N2[C@H](c3ccc4c(c3)OCO4)c3[nH]c4ccccc4c3C[C@@H]2C1=O [Tadalafil, tadalafil]","SHAQ alternative disability index, In Clinic Visit (Day 12), Mean",[1],0.375
same,"SHAQ alternative disability index, In Clinic Visit (Day 12), Median",[1],0.250
same,"SHAQ Visual Analogue Scale - Breathing Problems: Baseline, Mean",[2],3.240
same,"SHAQ Visual Analogue Scale - Breathing Problems: Baseline, Median",[2],3.100
same,"SHAQ Visual Analogue Scale - Breathing Problems: Change from Baseline (Day 12), Mean",[2],0.500
same,"SHAQ Visual Analogue Scale - Breathing Problems: Change from Baseline (Day 12), Median",[2],1.050
same,"SHAQ Visual Analogue Scale - Breathing Problems: In-Clinic Visit (Day 12), Mean",[2],4.300
same,"SHAQ Visual Analogue Scale - Breathing Problems: In-Clinic Visit (Day 12), Median",[2],4.000
same,"SHAQ Visual Analogue Scale - Breathing Problems: Percent Change from Baseline (Day 12), Mean",[2],−2.66%
same,"SHAQ Visual Analogue Scale - Breathing Problems: Percent Change from Baseline (Day 12), Median",[2],29.58%
same,"SHAQ Visual Analogue Scale - Finger Ulcers: Baseline, Mean",[2],1.700
same,"SHAQ Visual Analogue Scale - Finger Ulcers: Baseline, Median",[2],0.100
same,"SHAQ Visual Analogue Scale - Finger Ulcers: Change from Baseline (Day 12), Mean",[2],0.250
same,"SHAQ Visual Analogue Scale - Finger Ulcers: Change from Baseline (Day 12), Median",[2],0.000
same,"SHAQ Visual Analogue Scale - Finger Ulcers: In-Clinic Visit (Day 12), Mean",[2],2.325
same,"SHAQ Visual Analogue Scale - Finger Ulcers: In-Clinic Visit (Day 12), Median",[2],0.050
same,"SHAQ Visual Analogue Scale - Finger Ulcers: Percent Change from Baseline (Day 12), Mean",[2],6.10%
same,"SHAQ Visual Analogue Scale - Finger Ulcers: Percent Change from Baseline (Day 12), Median",[2],6.10%
same,"SHAQ Visual Analogue Scale - Intestinal Problems: Baseline, Mean",[2],2.700
same,"SHAQ Visual Analogue Scale - Intestinal Problems: Baseline, Median",[2],0.900
same,"SHAQ Visual Analogue Scale - Intestinal Problems: Change from Baseline (Day 12), Mean",[2],−0.125
same,"SHAQ Visual Analogue Scale - Intestinal Problems: Change from Baseline (Day 12), Median",[2],0.000
same,"SHAQ Visual Analogue Scale - Intestinal Problems: In-Clinic Visit (Day 12), Mean",[2],3.025
same,"SHAQ Visual Analogue Scale - Intestinal Problems: In-Clinic Visit (Day 12), Median",[2],1.450
same,"SHAQ Visual Analogue Scale - Intestinal Problems: Percent Change from Baseline (Day 12), Mean",[2],−6.92%
same,"SHAQ Visual Analogue Scale - Intestinal Problems: Percent Change from Baseline (Day 12), Median",[2],0.00%
same,"SHAQ Visual Analogue Scale - Overall Disease Severity: Baseline, Mean",[2],4.100
same,"SHAQ Visual Analogue Scale - Overall Disease Severity: Baseline, Median",[2],5.500
same,"SHAQ Visual Analogue Scale - Overall Disease Severity: Change from Baseline (Day 12), Mean",[2],0.625
same,"SHAQ Visual Analogue Scale - Overall Disease Severity: Change from Baseline (Day 12), Median",[2],0.700
same,"SHAQ Visual Analogue Scale - Overall Disease Severity: In-Clinic Visit (Day 12), Mean",[2],5.600
same,"SHAQ Visual Analogue Scale - Overall Disease Severity: In-Clinic Visit (Day 12), Median",[2],6.550
same,"SHAQ Visual Analogue Scale - Overall Disease Severity: Percent Change from Baseline (Day 12), Mean",[2],32.49%
same,"SHAQ Visual Analogue Scale - Overall Disease Severity: Percent Change from Baseline (Day 12), Median",[2],26.79%
same,"SHAQ Visual Analogue Scale - Raynaud's: Baseline, Mean",[2],4.860
same,"SHAQ Visual Analogue Scale - Raynaud's: Baseline, Median",[2],6.400
same,"SHAQ Visual Analogue Scale - Raynaud's: Change from Baseline (Day 12), Mean",[2],−0.825
same,"SHAQ Visual Analogue Scale - Raynaud's: Change from Baseline (Day 12), Median",[2],−0.500
same,"SHAQ Visual Analogue Scale - Raynaud's: In-Clinic Visit (Day 12), Mean",[2],4.950
same,"SHAQ Visual Analogue Scale - Raynaud's: In-Clinic Visit (Day 12), Median",[2],5.200
same,"SHAQ Visual Analogue Scale - Raynaud's: Percent Change from Baseline (Day 12), Mean",[2],−19.71%
same,"SHAQ Visual Analogue Scale - Raynaud's: Percent Change from Baseline (Day 12), Median",[2],−20.67%
same,"SHAQ Overall Severity: Baseline, Mean",[3],4.975
same,"SHAQ Overall Severity: Baseline, Median",[3],6.000
same,"SHAQ Overall Severity: Change from Baseline, Mean",[3],"0.625,"
same,"SHAQ Overall Severity: Change from Baseline, Median",[3],0.700
same,"SHAQ Overall Severity: Day 12, Mean",[3],5.600
same,"SHAQ Overall Severity: Day 12, Median",[3],6.550
same,"SHAQ Overall Severity: Percent Change from Baseline, Mean",[3],32.49%
same,"SHAQ Overall Severity: Percent Change from Baseline, Median",[3],26.790%
same,"SHAQ Standard Disability Index: Baseline, Mean",[4],0.594
same,"SHAQ Standard Disability Index: Baseline, Median",[4],0.625
same,"SHAQ Standard Disability Index: Change from Baseline, Mean",[4],−0.063
same,"SHAQ Standard Disability Index: Change from Baseline, Median",[4],−0.063
same,"SHAQ Standard Disability Index: Day 12, Mean",[4],0.531
same,"SHAQ Standard Disability Index: Day 12, Median",[4],0.563
same,"SHAQ Standard Disability Index: Percent Change from Baseline, Mean",[4],−9.26%
same,"SHAQ Standard Disability Index: Percent Change from Baseline, Median",[4],−11.11%
same,"SHAQ Visual Analogue Scale - Breathing Problems, Change from Baseline, Mean",[5],0.500
same,"SHAQ Visual Analogue Scale - Breathing Problems, Change from Baseline, Median",[5],1.050
same,"SHAQ Visual Analogue Scale - Breathing Problems, Percent Change from Baseline, Mean",[5],−2.66%
same,"SHAQ Visual Analogue Scale - Breathing Problems, Percent Change from Baseline, Median",[5],29.58%
same,"SHAQ Visual Analogue Scale - Finger Ulcers, Change from Baseline, Mean",[5],0.250
same,"SHAQ Visual Analogue Scale - Finger Ulcers, Change from Baseline, Median",[5],0.000
same,"SHAQ Visual Analogue Scale - Finger Ulcers, Percent Change from Baseline, Mean",[5],6.10%
same,"SHAQ Visual Analogue Scale - Finger Ulcers, Percent Change from Baseline, Median",[5],6.10%
same,"SHAQ Visual Analogue Scale - Intestinal Problems, Change from Baseline, Mean",[5],−0.125
same,"SHAQ Visual Analogue Scale - Intestinal Problems, Change from Baseline, Median",[5],0.000
same,"SHAQ Visual Analogue Scale - Intestinal Problems, Percent Change from Baseline, Mean",[5],−6.92%
same,"SHAQ Visual Analogue Scale - Intestinal Problems, Percent Change from Baseline, Median",[5],0.00%
same,"SHAQ Visual Analogue Scale - Overall Disease Severity, Change from Baseline, Mean",[5],0.625
same,"SHAQ Visual Analogue Scale - Overall Disease Severity, Change from Baseline, Median",[5],0.700
same,"SHAQ Visual Analogue Scale - Overall Disease Severity, Percent Change from Baseline, Mean",[5],32.49%
same,"SHAQ Visual Analogue Scale - Overall Disease Severity, Percent Change from Baseline, Median",[5],26.79%
same,"SHAQ Visual Analogue Scale - Pain, Change from Baseline, Mean",[5],1.000
same,"SHAQ Visual Analogue Scale - Pain, Change from Baseline, Median",[5],0.800
same,"SHAQ Visual Analogue Scale - Pain, Percent Change from Baseline, Mean",[5],31.35%
same,"SHAQ Visual Analogue Scale - Pain, Percent Change from Baseline, Median",[5],10.81%
same,"SHAQ Visual Analogue Scale - Raynaud's, Change from Baseline, Mean",[5],−0.825
same,"SHAQ Visual Analogue Scale - Raynaud's, Change from Baseline, Median",[5],−0.500
same,"SHAQ Visual Analogue Scale - Raynaud's, Percent Change from Baseline, Mean",[5],−19.71%
same,"SHAQ Visual Analogue Scale - Raynaud's, Percent Change from Baseline, Median",[5],−20.67%
same,"SHAQ Alternative Disability Index: Change from Baseline, Mean",[6],−0.094
same,"SHAQ Alternative Disability Index: Change from Baseline, Median",[6],−0.125
same,"SHAQ Alternative Disability Index: In-Clinic Visit (Day 12), Mean",[6],0.375
same,"SHAQ Alternative Disability Index: In-Clinic Visit (Day 12), Median",[6],0.250
same,"SHAQ Alternative Disability Index: Percent Change from Baseline, Mean",[6],−43.70%
same,"SHAQ Alternative Disability Index: Percent Change from Baseline, Median",[6],−20.00%
same,"SHAQ Standard Disability Index: Change from Baseline, Mean",[6],−0.063
same,"SHAQ Standard Disability Index: Change from Baseline, Median",[6],−0.063
same,"SHAQ Standard Disability Index: In-Clinic Visit (Day 12), Mean",[6],0.531
same,"SHAQ Standard Disability Index: In-Clinic Visit (Day 12), Median",[6],0.563
same,"SHAQ Standard Disability Index: Percent Change from Baseline, Mean",[6],−9.26%
same,"SHAQ Standard Disability Index: Percent Change from Baseline, Median",[6],−11.11%
same,"SHAQ Visual Analogue Scale - Pain: Change from Baseline, Mean",[6],1.000
same,"SHAQ Visual Analogue Scale - Pain: Change from Baseline, Median",[6],0.800
same,"SHAQ Visual Analogue Scale - Pain: In-Clinic Visit (Day 12), Mean",[6],5.300
same,"SHAQ Visual Analogue Scale - Pain: In-Clinic Visit (Day 12), Median",[6],5.850
same,"SHAQ Visual Analogue Scale - Pain: Percent Change from Baseline, Mean",[6],31.35%
same,"SHAQ Visual Analogue Scale - Pain: Percent Change from Baseline, Median",[6],10.81%
same,"SHAQ Visual Analogue Scale - Breathing Problems, In-Clinic Visit (Day 12), Mean",[7],4.300
same,"SHAQ Visual Analogue Scale - Breathing Problems, In-Clinic Visit (Day 12), Median",[7],4.000
same,"SHAQ Visual Analogue Scale - Finger Ulcers, In-Clinic Visit (Day 12), Mean",[7],2.325
same,"SHAQ Visual Analogue Scale - Finger Ulcers, In-Clinic Visit (Day 12), Median",[7],0.050
same,"SHAQ Visual Analogue Scale - Intestinal Problems, In-Clinic Visit (Day 12), Mean",[7],3.025
same,"SHAQ Visual Analogue Scale - Intestinal Problems, In-Clinic Visit (Day 12), Median",[7],1.450
same,"SHAQ Visual Analogue Scale - Overall Disease Severity, In-Clinic Visit (Day 12), Mean",[7],5.600
same,"SHAQ Visual Analogue Scale - Overall Disease Severity, In-Clinic Visit (Day 12), Median",[7],6.550
same,"SHAQ Visual Analogue Scale - Pain, In-Clinic Visit (Day 12), Mean",[7],5.300
same,"SHAQ Visual Analogue Scale - Pain, In-Clinic Visit (Day 12), Median",[7],5.850
same,"SHAQ Visual Analogue Scale - Raynaud's, In-Clinic Visit (Day 12), Mean",[7],4.950
same,"SHAQ Visual Analogue Scale - Raynaud's, In-Clinic Visit (Day 12), Median",[7],5.200

# Source: patent US20240358693A1, “METHODS OF TREATING PAIN” (Aisa Pharma, Inc., priority 2023, published 2024)
